Where two headings read alike, the source gives them in different places.
What was measured:
hESC = details: incubated in mTeSR plus NaOAc.3H2O, then transferred to differentiation medium
Method: (6A) Spontaneous differentiation of hESC incubated in mTeSR only then transferred to differentiation medium. […] (6B) hESC incubated in mTeSR plus NaOAc.3H2O, then transferred to differentiation medium.
These colonies were labeled with an antibody to Pax6, a marker for ectodermal differentiation.

hESC colonies = test system: hESC colonies
Method: Colonies were incubated in mTeSR or mTeSR plus varying concentrations of NaOAc.3H2O.

hPSC colonies = details: Essential-8 + 10 mM NaOAc.3H2O vs Essential-8 alone
H9 hESC = details: H9 colony from another lab, mTeSR1 + 10 mM NaOAc.3H2O, 24 hours
[1] = test system: human embryonic stem cells (hESC)
From the text: These are hallmarks of healthy pluripotent human embryonic stem cells (hESC) in culture. […] These are not normal pluripotent stem cell morphologies and are observed when colonies begin to differentiate.

[2] = test system: human embryonic stem cells (hESC); remark: listed apart in the source
Method: FIG. 2 is a panel showing that the addition of NaOc.3H2O to hPSC culture medium rescued human embryonic stem cell cultures, improved attachment/spreading, and decreased cell death. […] (2E) Comparison of hESC attachment in mTeSR1 or mTeSR1+10 mM NaOAc.3H2O, (2F) Spreading of colonies in mTeSR1 only is poor; colonies are elevated, not flat, (2G) Spreading of colonies in mTeSR1+10 mM NaOAc.3H2O is improved; colonies are flatter and spread faster. (2H-2M) StemCellQC™ time-lapse video bioinformatics analysis of colonies grown in mTeSR1 only or mTeSR1+10 mM NaOAc. Colonies cultured in mTeSR1+10 mM NaOAc grow faster (2H and 2I), are rounder (normal morphology) (2J), have better motility (2K and 2L), and have fewer dead cells (2M).
This is very important and may be a factor in preventing unwanted differentiation. FIGS. 2H-M show video bioinformatics analysis of live hESC growing in vitro. This analysis was done on time-lapse images of living cultures and allows quantitative comparison between cells grown in different media.

[3] = mTeSR1 + 10 mM NaOAc vs mTeSR1 only

CC(=O)[O-].O.O.O.[Na+] [NaOAc.3H2O, sodium acetate trihydrate]
Pax6 staining (ectodermal marker) (hESC): stained positively for Pax6
Oct 4 fluorescence, concentration comparison (hESC colonies; 10 μM concentration): Fluorescence was strongest
Oct4A staining (hESC colonies; mTeSR1 + 5 mM NaOAc): Positive Oct4A staining
Oct4A staining (hESC colonies; mTeSR1 + 10 mM NaOAc): Positive Oct4A staining
Sox2 staining (hESC colonies; mTeSR1 + 10 mM NaOAc): Positive Sox2 staining
Oct 4 labeling (biomarker for pluripotency) (hESC colonies; mTeSR plus varying concentrations of NaOAc.3H2O): bright labeling of Oct 4
colony morphology (hPSC colonies): improved morphology
colony morphology (H9 hESC): round morphology with smooth edges
colony morphology ([1]; mTeSR + 1 mM NaOAc.3H2O): little effect on colony morphology
colony morphology ([1]; mTeSR + 5 or 10 mM NaOAc.3H2O): colony morphology was restored to normal
passages without differentiation of colonies ([1]; passaged in mTeSR with the NaOAc.3H2O supplement): over 20 times
brightness to area ratio (measurement of cell death) [2, 3]: low brightness to area ratio
cell death [2, 3]: Fewer cells died
colony motility [2, 3]: Motility was greater
growth rate [2, 3]: much faster
solidity (colony roundness) [2, 3]: closer to 1
spreading of hESC colonies on the substrate ([2]; mTeSR1 + 10 mM NaOAc.3H2O vs mTeSR1): spread faster on the substrate
attachment of cells to their substrate ([2]; mTeSR1 + 10 mM NaOAc.3H2O vs mTeSR1, modest but significantly different): enhanced the attachment of cells to their substrate

From patent publication US10370637B2, “Technology for sustaining pluripotency and improved growth of stem cells in culture” (The Regents of the University of California, priority 2015, dated 2019)
